The source of these data is the supplement of paper PMC12613149.

The nature of data set [1]: collision cross section (TIMS, N2 drift gas) of the primary ion; higher = larger gas-phase ion size.
Data set [2] in a line: reversed-phase LC retention time (C18, 15 min MeOH gradient); higher = more hydrophobic / later elution.
The mark [3] stands for this setting: ionization mode: ESI+, ion species: [M+H]+.
Setting [4] is: ionization mode: ESI-, ion species: [M-H]-.

SMILES strings stand for the structures.

Turning to `Clc1cccc(Cl)c1NC1=NCCN1` [Clonidine], the results for the collision cross section in data set [1] (setting [3]) and in data set [1] (setting [4]) were 145.06 Å² and 145.07 Å², respectively. In addition, the “reversed-phase LC retention time” value in data set [2] (setting [3]) was 6.83 min; in data set [2] (setting [4]), 9.84 min.
Regarding `C[C@H]1C[C@H]2[C@@H]3CCC4=CC(=O)C=C[C@]4(C)[C@@]3(F)[C@@H](O)C[C@]2(C)[C@@]1(O)C(=O)CCl` [Clobetasol], the collision cross section in data set [1] (setting [4]) was found to be 194.82 Å². The “reversed-phase LC retention time” value in data set [2] (setting [4]) is 14.4 min.
As to `CCCSP(=O)(OCC)Oc1ccc(Br)cc1Cl` (stereo not drawn) [Profenofos], the collision cross section in data set [1] (setting [3]) came to 169.17 Å². In data set [2] (setting [3]), the “reversed-phase LC retention time” value was found to be 16.6 min.
`NC(CC(=O)N1CCn2c(nnc2C(F)(F)F)C1)Cc1cc(F)c(F)cc1F` (stereo not drawn) [Sitagliptin]: the collision cross section in data set [1] (setting [3]) stood at 192.92 Å²; in data set [1] (setting [4]), 182.72 Å². The “reversed-phase LC retention time” value came to 9.57 min in data set [2] (setting [3]) and 12.1 min in data set [2] (setting [4]).
Turning to `O=C(O)C(F)(F)C(F)(F)C(F)(F)C(F)(F)C(F)(F)C(F)(F)C(F)(F)F` [Perfluorooctanoic acid], the collision cross section in data set [1] (setting [4]) is 155.67 Å². For the same compound, in data set [2] (setting [4]), the “reversed-phase LC retention time” value was determined as 14.7 min.
Turning to `Cc1cccc(C)c1N(Cn1cccn1)C(=O)CS(=O)CC(=O)O` (stereo not drawn) [Metazachlor BH 479-9], the collision cross section in data set [1] (setting [3]) is given as 175.08 Å²; in data set [1] (setting [4]) it was 178.82 Å². In addition, the figures for the “reversed-phase LC retention time” value in data set [2] (setting [3]) and in data set [2] (setting [4]) were 9.7 min and 8.94 min, respectively.
Consider `O=Cc1c[nH]c2ccccc12` [Indole-3-carboxyaldehyde], for which the collision cross section in data set [1] (setting [4]) was 122.39 Å². The “reversed-phase LC retention time” value in data set [2] (setting [4]) is 9.34 min.
As to `Cc1ccc(S(N)(=O)=O)cc1` [p-Toluenesulfonamide], the collision cross section in data set [1] (setting [4]) is 134.47 Å². In addition, the “reversed-phase LC retention time” value in data set [2] (setting [4]) was 8.4 min.
Turning to `CCC(=O)[C@@]1(C)[C@H](C)C[C@H]2[C@@H]3CCC4=CC(=O)C=C[C@]4(C)[C@H]3[C@@H](O)C[C@@]21C` [Rimexolone], the collision cross section in data set [1] (setting [3]) amounted to 192.28 Å²; in data set [1] (setting [4]) it was 191.62 Å². The “reversed-phase LC retention time” value in data set [2] (setting [3]) was 16 min; in data set [2] (setting [4]) it was 16.4 min.
Consider `CCOC(=O)CC(O)(CC(=O)OCC)C(=O)OCC` [Triethylcitrate], for which the collision cross section in data set [1] (setting [3]) turned out to be 159.4 Å². Also, the “reversed-phase LC retention time” value in data set [2] (setting [3]) turned out to be 11.8 min.
The corresponding values for `CC(C)(c1ccccc1)c1cc(-n2nc3ccccc3n2)c(O)c(C(C)(C)c2ccccc2)c1` [UV-234] are 219.51 Å² and 19.7 min.
Regarding `CO/N=C(/C(=O)O)c1ccccc1CO/N=C(\C)c1cccc(C(F)(F)F)c1`, the collision cross section in data set [1] (setting [3]) came to 186.57 Å². Moreover, in data set [2] (setting [3]), the “reversed-phase LC retention time” value came to 15.5 min.
With `NC(=O)Nc1ccc(Cl)c(Cl)c1` [3,4-Dichlorophenylurea], the results for the collision cross section in data set [1] (setting [3]) and in data set [1] (setting [4]) were 146.21 Å² and 134.15 Å², respectively. The “reversed-phase LC retention time” value is 12.2 min in data set [2] (setting [3]) and 12.4 min in data set [2] (setting [4]).
In the case of `CCCCC(CC)COC(=O)c1ccc(Nc2nc(Nc3ccc(C(=O)OCC(CC)CCCC)cc3)nc(Nc3ccc(C(=O)OCC(CC)CCCC)cc3)n2)cc1` (stereo not drawn), the collision cross section in data set [1] (setting [3]) was found to be 282.62 Å². In addition, the “reversed-phase LC retention time” value in data set [2] (setting [3]) was 19.5 min.
In the case of `Cc1cccc(C)c1NC(=O)CS(=O)(=O)O`, the collision cross section in data set [1] (setting [3]) worked out at 152.57 Å²; in data set [1] (setting [4]), 149.99 Å². For the same compound, the “reversed-phase LC retention time” value in data set [2] (setting [3]) was 7.36 min; in data set [2] (setting [4]), 7.04 min.
Consider `CC(C)NCC(O)COc1ccc(COCCOC(C)C)cc1` (stereo not drawn) [Bisoprolol], for which the collision cross section in data set [1] (setting [3]) was 191.63 Å². In addition, in data set [2] (setting [3]), the “reversed-phase LC retention time” value was found to be 11 min.
In data set [1] (setting [3]), `CCOP(=O)(OCC)OCC` [Triethylphosphate] displayed a collision cross section of 131.26 Å². Moreover, the “reversed-phase LC retention time” value in data set [2] (setting [3]) turned out to be 10.7 min.
Consider `Cc1nc(=O)c(-c2ccccc2)n[nH]1` [Metamitron-desamino], for which the collision cross section is 139.91 Å² in data set [1] (setting [3]) and 137.07 Å² in data set [1] (setting [4]). Further, the “reversed-phase LC retention time” value stood at 8.87 min in data set [2] (setting [3]) and 6.92 min in data set [2] (setting [4]).
In data set [1] (setting [3]), `CC[C@H]1CCC[C@H](O[C@H]2CC[C@H](N(C)C)[C@@H](C)O2)[C@@H](C)C(=O)C2=C[C@@H]3[C@@H](C=C[C@@H]4C[C@@H](O[C@@H]5O[C@@H](C)[C@H](OC)[C@@H](OC)[C@H]5OC)C[C@@H]34)[C@@H]2CC(=O)O1` [Spinosyn A] returned a collision cross section of 267.49 Å². The “reversed-phase LC retention time” value in data set [2] (setting [3]) stood at 15.9 min.
In data set [1] (setting [3]), `C=CCOC(Cn1ccnc1)c1ccc(Cl)cc1Cl` (stereo not drawn) [Imazalil] returned a collision cross section of 167.87 Å². The “reversed-phase LC retention time” value in data set [2] (setting [3]) amounted to 12.7 min.
With `O=S(=O)(O)c1ccc2ccccc2c1` [2-Naphthalenesulfonic acid], the collision cross section in data set [1] (setting [4]) is listed as 142.13 Å². In addition, the “reversed-phase LC retention time” value in data set [2] (setting [4]) stood at 8.49 min.
With `CCN(CC)C(=O)c1cccc(C)c1` [DEET], the collision cross section in data set [1] (setting [3]) is given as 142.86 Å². Also, in data set [2] (setting [3]), the “reversed-phase LC retention time” value was 13 min.
The corresponding values for `O=P(Oc1ccccc1)(Oc1ccccc1)Oc1ccccc1` [Triphenylphosphate] are 172.48 Å² and 15.7 min.
Regarding `COc1ccc2c(c1)c(CC(=O)O)c(C)n2C(=O)c1ccc(Cl)cc1` [Indomethacin], the collision cross section in data set [1] (setting [3]) came out at 182.58 Å²; in data set [1] (setting [4]), 188.5 Å². For the same compound, the “reversed-phase LC retention time” value in data set [2] (setting [3]) came out at 15.3 min; in data set [2] (setting [4]) it was 13.8 min.
Compound `O=P(OCC(Br)CBr)(OCC(Br)CBr)OCC(Br)CBr` (stereo not drawn) [Tris(2,3-dibromopropyl)phosphate] returned a collision cross section in data set [1] (setting [3]) of 195.61 Å². For the same compound, the “reversed-phase LC retention time” value in data set [2] (setting [3]) was found to be 16 min.
In data set [1] (setting [4]), `CC1(C)O[C@@H]2C[C@H]3[C@@H]4C[C@H](F)C5=CC(=O)C=C[C@]5(C)[C@@]4(F)[C@@H](O)C[C@]3(C)[C@]2(C(=O)CO)O1` [Fluocinolone acetonide] displayed a collision cross section of 198.83 Å². For the same compound, the “reversed-phase LC retention time” value in data set [2] (setting [4]) worked out at 13.7 min.
